Laboratory results published in PMC7311426, “An amphipathic peptide with antibiotic activity against multidrug-resistant Gram-negative bacteria” (Nature Communications, 2020).
Values after ≈ are worked out from the molar mass of the structure shown. Read-outs that look alike come from different tables or passages of the source.

Key:
Assay in all cases: microbe, parasite or virus in culture
[1] = test system: P. aeruginosa; settings: Pseudomonas aeruginosa
In short: (§1)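 Broth microdilution in MHB, 2-fold 12-point series from 128 or 64 down to 0.06 or 0.03 μg mL^−1, 5 × 10^5 CFU mL^−1. Extra runs in CAMHB per CLSI and in MHB with 1% agarose; n ≥ 6.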

[2] = test system: S. enterica Typhi; settings: Salmonella enterica, ATCC14028 / TYPHI, read-out: BMD MIC
In short: as §1

[3] = test system: E. coli; settings: Escherichia coli
In short: as §1

Molecule C[C@@H](O)[C@H]1C(=O)N2C(C(=O)O)=C(S[C@@H]3CN[C@H](C(=O)N(C)C)C3)[C@H](C)[C@H]12 [Meropenem, meropenem, reference compound] has an MIC ([1]; ATCC27853, read-out: MIC, broth microdilution, P. aeruginosa ATCC 27853 spontaneous mutant, AA139 selection 8X, plate 1, colony 1, drug-free passage 5) of 0.5 mg/L (≈ 1.3 µM), an MIC ([1]; ATCC27853, read-out: MIC, broth microdilution, P. aeruginosa ATCC 27853 spontaneous mutant, AA139 selection 8X, plate 1, colony 2, drug-free passage 1) of 0.25 mg/L (≈ 0.652 µM) and an MIC ([1]; ATCC27853, read-out: MIC, broth microdilution, P. aeruginosa ATCC 27853 spontaneous mutant, AA139 selection 8X, plate 1, colony 2, drug-free passage 5) of 0.5 mg/L (≈ 1.3 µM). For the same molecule, the MIC ([1]; ATCC27853, read-out: MIC, broth microdilution, P. aeruginosa ATCC 27853 spontaneous mutant, AA139 selection 8X, plate 1, colony 3, drug-free passage 1) was 0.25 mg/L (≈ 0.652 µM), the MIC ([1]; ATCC27853, read-out: MIC, broth microdilution, P. aeruginosa ATCC 27853 spontaneous mutant, AA139 selection 8X, plate 1, colony 3, drug-free passage 5) was 0.25 mg/L (≈ 0.652 µM) and the MIC ([1]; ATCC27853, read-out: MIC, broth microdilution, P. aeruginosa ATCC 27853 spontaneous mutant, AA139 selection 8X, plate 1, colony 4, drug-free passage 1) was 0.5 mg/L (≈ 1.3 µM). It also gave an MIC ([1]; ATCC27853, read-out: MIC, broth microdilution, P. aeruginosa ATCC 27853 spontaneous mutant, AA139 selection 8X, plate 1, colony 4, drug-free passage 5) of 0.5 mg/L (≈ 1.3 µM), an MIC ([1]; ATCC27853, read-out: MIC, broth microdilution, P. aeruginosa ATCC 27853 spontaneous mutant, AA139 selection 8X, plate 1, colony 5, drug-free passage 1) of 0.5 mg/L (≈ 1.3 µM) and an MIC ([1]; ATCC27853, read-out: MIC, broth microdilution, P. aeruginosa ATCC 27853 spontaneous mutant, AA139 selection 8X, plate 1, colony 5, drug-free passage 5) of 0.25 mg/L (≈ 0.652 µM). The MIC ([1]; read-out: BMD MIC, P. aeruginosa FADDI-070, MDR, PmxR, MHB/CAMHB, mode of 6 replicates) was 1 mg/L (≈ 2.61 µM), the MIC ([1]; read-out: MIC, broth microdilution, P. aeruginosa UNT 138-1 spontaneous mutant, AA139 selection 4X, plate 1, colony 1, drug-free passage 1) was 0.12 mg/L (≈ 0.313 µM) and the MIC ([1]; read-out: MIC, broth microdilution, P. aeruginosa UNT 138-1 spontaneous mutant, AA139 selection 4X, plate 1, colony 1, drug-free passage 5) was 0.12 mg/L (≈ 0.313 µM). The MIC ([1]; read-out: MIC, broth microdilution, P. aeruginosa UNT 138-1 spontaneous mutant, AA139 selection 4X, plate 1, colony 2, drug-free passage 1) was 0.12 mg/L (≈ 0.313 µM), the MIC ([1]; read-out: MIC, broth microdilution, P. aeruginosa UNT 138-1 spontaneous mutant, AA139 selection 4X, plate 1, colony 2, drug-free passage 5) was 0.25 mg/L (≈ 0.652 µM) and the MIC ([1]; read-out: MIC, broth microdilution, P. aeruginosa UNT 138-1 spontaneous mutant, AA139 selection 4X, plate 1, colony 3, drug-free passage 1) was 0.06 mg/L (≈ 0.156 µM). It also gave an MIC ([1]; read-out: MIC, broth microdilution, P. aeruginosa UNT 138-1 spontaneous mutant, AA139 selection 4X, plate 1, colony 3, drug-free passage 5) of 0.12 mg/L (≈ 0.313 µM), an MIC ([1]; read-out: MIC, broth microdilution, P. aeruginosa UNT 138-1 spontaneous mutant, AA139 selection 4X, plate 1, colony 4, drug-free passage 1) of 0.06 mg/L (≈ 0.156 µM) and an MIC ([1]; read-out: MIC, broth microdilution, P. aeruginosa UNT 138-1 spontaneous mutant, AA139 selection 4X, plate 1, colony 4, drug-free passage 5) of 0.12 mg/L (≈ 0.313 µM). For the same molecule, the MIC ([1]; read-out: MIC, broth microdilution, P. aeruginosa UNT 138-1 spontaneous mutant, AA139 selection 4X, plate 1, colony 5, drug-free passage 1) was 0.12 mg/L (≈ 0.313 µM), the MIC ([1]; read-out: MIC, broth microdilution, P. aeruginosa UNT 138-1 spontaneous mutant, AA139 selection 4X, plate 1, colony 5, drug-free passage 5) was 0.12 mg/L (≈ 0.313 µM) and the MIC ([1]; read-out: MIC, broth microdilution, P. aeruginosa UNT 138-1 spontaneous mutant, AA139 selection 4X, plate 1, colony 6, drug-free passage 1) was 0.06 mg/L (≈ 0.156 µM). For the same molecule, the MIC ([1]; read-out: MIC, broth microdilution, P. aeruginosa UNT 138-1 spontaneous mutant, AA139 selection 4X, plate 1, colony 6, drug-free passage 5) was 0.25 mg/L (≈ 0.652 µM), the MIC ([1]; read-out: MIC, broth microdilution, P. aeruginosa UNT 138-1 spontaneous mutant, AA139 selection 4X, plate 1, colony 7, drug-free passage 1) was 0.06 mg/L (≈ 0.156 µM) and the MIC ([1]; read-out: MIC, broth microdilution, P. aeruginosa UNT 138-1 spontaneous mutant, AA139 selection 4X, plate 1, colony 7, drug-free passage 5) was 0.12 mg/L (≈ 0.313 µM). The MIC ([1]; read-out: MIC, broth microdilution, P. aeruginosa UNT 138-1 spontaneous mutant, AA139 selection 4X, plate 2, colony 1, drug-free passage 1) was 0.06 mg/L (≈ 0.156 µM), the MIC ([1]; read-out: MIC, broth microdilution, P. aeruginosa UNT 138-1 spontaneous mutant, AA139 selection 4X, plate 2, colony 1, drug-free passage 5) was 0.06 mg/L (≈ 0.156 µM) and the MIC ([1]; read-out: MIC, broth microdilution, P. aeruginosa UNT 138-1 spontaneous mutant, AA139 selection 4X, plate 2, colony 2, drug-free passage 1) was 0.25 mg/L (≈ 0.652 µM). It also gave an MIC ([1]; read-out: MIC, broth microdilution, P. aeruginosa UNT 138-1 spontaneous mutant, AA139 selection 4X, plate 2, colony 2, drug-free passage 5) of 0.12 mg/L (≈ 0.313 µM), an MIC ([1]; read-out: MIC, broth microdilution, P. aeruginosa UNT 138-1 spontaneous mutant, AA139 selection 4X, plate 2, colony 3, drug-free passage 1) of 0.12 mg/L (≈ 0.313 µM) and an MIC ([1]; read-out: MIC, broth microdilution, P. aeruginosa UNT 138-1 spontaneous mutant, AA139 selection 4X, plate 2, colony 3, drug-free passage 5) of 0.12 mg/L (≈ 0.313 µM). It also gave an MIC ([1]; read-out: MIC, broth microdilution, P. aeruginosa UNT 138-1 spontaneous mutant, AA139 selection 4X, plate 2, colony 4, drug-free passage 1) of 0.12 mg/L (≈ 0.313 µM), an MIC ([1]; read-out: MIC, broth microdilution, P. aeruginosa UNT 138-1 spontaneous mutant, AA139 selection 4X, plate 2, colony 4, drug-free passage 5) of 0.12 mg/L (≈ 0.313 µM) and an MIC ([1]; read-out: MIC, broth microdilution, P. aeruginosa UNT 138-1 spontaneous mutant, AA139 selection 4X, plate 2, colony 5, drug-free passage 1) of 0.5 mg/L (≈ 1.3 µM). It also gave an MIC ([1]; read-out: MIC, broth microdilution, P. aeruginosa UNT 138-1 spontaneous mutant, AA139 selection 4X, plate 2, colony 5, drug-free passage 5) of 0.12 mg/L (≈ 0.313 µM), an MIC ([1]; read-out: MIC, broth microdilution, P. aeruginosa UNT 138-1 spontaneous mutant, AA139 selection 4X, plate 2, colony 6, drug-free passage 1) of 0.5 mg/L (≈ 1.3 µM) and an MIC ([1]; read-out: MIC, broth microdilution, P. aeruginosa UNT 138-1 spontaneous mutant, AA139 selection 4X, plate 2, colony 6, drug-free passage 5) of 0.12 mg/L (≈ 0.313 µM). The MIC ([1]; read-out: MIC, broth microdilution, P. aeruginosa UNT 138-1 spontaneous mutant, AA139 selection 4X, plate 2, colony 7, drug-free passage 1) was 0.06 mg/L (≈ 0.156 µM), the MIC ([1]; read-out: MIC, broth microdilution, P. aeruginosa UNT 138-1 spontaneous mutant, AA139 selection 4X, plate 2, colony 7, drug-free passage 5) was 0.12 mg/L (≈ 0.313 µM) and the MIC ([1]; read-out: MIC, broth microdilution, P. aeruginosa UNT 138-1 spontaneous mutant, AA139 selection 8X, plate 1, colony 1, drug-free passage 1) was 0.06 mg/L (≈ 0.156 µM). For the same molecule, the MIC ([1]; read-out: MIC, broth microdilution, P. aeruginosa UNT 138-1 spontaneous mutant, AA139 selection 8X, plate 1, colony 1, drug-free passage 5) was 0.06 mg/L (≈ 0.156 µM), the MIC ([1]; read-out: MIC, broth microdilution, P. aeruginosa UNT 138-1 spontaneous mutant, AA139 selection 8X, plate 1, colony 2, drug-free passage 1) was 0.06 mg/L (≈ 0.156 µM) and the MIC ([1]; read-out: MIC, broth microdilution, P. aeruginosa UNT 138-1 spontaneous mutant, AA139 selection 8X, plate 1, colony 2, drug-free passage 5) was 0.12 mg/L (≈ 0.313 µM). For the same molecule, the MIC ([1]; read-out: MIC, broth microdilution, P. aeruginosa UNT 138-1 spontaneous mutant, AA139 selection 8X, plate 1, colony 3, drug-free passage 1) was 0.12 mg/L (≈ 0.313 µM), the MIC ([1]; read-out: MIC, broth microdilution, P. aeruginosa UNT 138-1 spontaneous mutant, AA139 selection 8X, plate 1, colony 3, drug-free passage 5) was 0.12 mg/L (≈ 0.313 µM) and the MIC ([1]; read-out: MIC, broth microdilution, P. aeruginosa UNT 138-1 spontaneous mutant, AA139 selection 8X, plate 1, colony 4, drug-free passage 1) was 0.12 mg/L (≈ 0.313 µM). For the same molecule, the MIC ([1]; read-out: MIC, broth microdilution, P. aeruginosa UNT 138-1 spontaneous mutant, AA139 selection 8X, plate 1, colony 4, drug-free passage 5) was 0.12 mg/L (≈ 0.313 µM), the MIC ([1]; read-out: MIC, broth microdilution, P. aeruginosa UNT 138-1 spontaneous mutant, AA139 selection 8X, plate 1, colony 5, drug-free passage 1) was 0.06 mg/L (≈ 0.156 µM) and the MIC ([1]; read-out: MIC, broth microdilution, P. aeruginosa UNT 138-1 spontaneous mutant, AA139 selection 8X, plate 1, colony 5, drug-free passage 5) was 0.06 mg/L (≈ 0.156 µM). It also gave an MIC ([1]; read-out: MIC, broth microdilution, P. aeruginosa UNT 138-1 spontaneous mutant, AA139 selection 8X, plate 2, colony 1, drug-free passage 1) of 0.06 mg/L (≈ 0.156 µM), an MIC ([1]; read-out: MIC, broth microdilution, P. aeruginosa UNT 138-1 spontaneous mutant, AA139 selection 8X, plate 2, colony 1, drug-free passage 5) of 0.12 mg/L (≈ 0.313 µM) and an MIC [2] of 0.125 mg/L (≈ 0.326 µM). The MIC ([3]; ATCC25922, read-out: BMD MIC, E. coli ATCC 25922 FDA control strain, CAMHB, mode of 6 replicates) was no more than 0.06 mg/L, the MIC ([3]; ATCC25922, read-out: BMD MIC, E. coli ATCC 25922 FDA control strain, MHB, mode of 6 independent biological replicates) was 0.015 mg/L (≈ 0.0391 µM) and the MIC ([3]; ATCC700926 / MG1655, read-out: BMD MIC) was no more than 0.03 mg/L. For the same molecule, the MIC ([3]; ATCC700928, read-out: BMD MIC, E. coli ATCC 700928 CFT073 UPEC, CAMHB, mode of 6 replicates) was no more than 0.25 mg/L, the MIC ([3]; read-out: BMD MIC) was no more than 0.25 mg/L and the MIC ([3]; read-out: MIC against E. coli AID#172 MDR clinical isolate, BMD) was 0.125 mg/L (≈ 0.326 µM). For the same molecule, the MIC ([3]; read-out: MIC against ESBL producing E. coli DSA 443, BMD) was 0.032 mg/L (≈ 0.0834 µM), the MIC ([3]; read-out: MIC, broth microdilution, E. coli AUD172 parent strain not exposed to drug) was 0.015 mg/L (≈ 0.0391 µM) and the MIC ([3]; read-out: MIC, broth microdilution, E. coli AUD172 spontaneous mutant, AA139 selection 4X, plate 2, colony 2, drug-free passage 1) was 0.015 mg/L (≈ 0.0391 µM). For the same molecule, the MIC ([3]; read-out: MIC, broth microdilution, E. coli AUD172 spontaneous mutant, AA139 selection 4X, plate 2, colony 2, drug-free passage 5) was 0.03 mg/L (≈ 0.0782 µM).
